Calls of active or inactive are those of the source.
Experiments:
[1] = biological target: T1, Replicative DNA helicase DnaB (Mycobacterium tuberculosis, UniProt P9WMR3); assay: DnaB intein splicing inhibitors, dose response, biochemical, cell-free fluorescence (AID 449749); format: functional
T1 sequence (P9WMR3 whole entry): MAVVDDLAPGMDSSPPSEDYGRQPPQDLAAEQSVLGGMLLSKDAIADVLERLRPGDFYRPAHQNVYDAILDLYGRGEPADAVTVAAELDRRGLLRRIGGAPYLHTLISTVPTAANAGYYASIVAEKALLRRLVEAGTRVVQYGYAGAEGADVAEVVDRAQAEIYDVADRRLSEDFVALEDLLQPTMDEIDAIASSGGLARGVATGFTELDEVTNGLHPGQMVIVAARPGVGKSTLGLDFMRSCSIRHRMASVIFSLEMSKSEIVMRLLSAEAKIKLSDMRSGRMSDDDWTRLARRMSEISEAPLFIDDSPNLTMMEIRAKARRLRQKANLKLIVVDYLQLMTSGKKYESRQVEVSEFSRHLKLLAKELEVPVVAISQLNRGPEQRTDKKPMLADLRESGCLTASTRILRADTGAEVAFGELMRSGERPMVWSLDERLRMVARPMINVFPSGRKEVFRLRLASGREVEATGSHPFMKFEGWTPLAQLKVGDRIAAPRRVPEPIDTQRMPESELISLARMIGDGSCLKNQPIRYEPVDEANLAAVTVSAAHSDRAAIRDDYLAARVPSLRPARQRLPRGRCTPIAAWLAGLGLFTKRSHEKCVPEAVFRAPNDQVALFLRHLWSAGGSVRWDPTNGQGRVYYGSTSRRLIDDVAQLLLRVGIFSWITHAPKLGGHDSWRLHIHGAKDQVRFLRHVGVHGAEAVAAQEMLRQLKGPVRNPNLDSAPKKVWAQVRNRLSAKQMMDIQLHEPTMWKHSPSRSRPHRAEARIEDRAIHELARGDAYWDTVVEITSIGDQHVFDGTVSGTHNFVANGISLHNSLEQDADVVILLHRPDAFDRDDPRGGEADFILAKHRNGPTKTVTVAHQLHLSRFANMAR

[2] = biological target: T2, Protein RecA (Mycobacterium tuberculosis, UniProt P9WHJ3); assay: Fluorescence Cell-Free Homogeneous Dose Retest to Identify Inhibitors of RecA-Intein Splicing Activity. [Related pubchem assays (depositor defined):AID2097, AID2223, AID489010, AID492950]; format: functional
T2 sequence (P9WHJ3 whole entry): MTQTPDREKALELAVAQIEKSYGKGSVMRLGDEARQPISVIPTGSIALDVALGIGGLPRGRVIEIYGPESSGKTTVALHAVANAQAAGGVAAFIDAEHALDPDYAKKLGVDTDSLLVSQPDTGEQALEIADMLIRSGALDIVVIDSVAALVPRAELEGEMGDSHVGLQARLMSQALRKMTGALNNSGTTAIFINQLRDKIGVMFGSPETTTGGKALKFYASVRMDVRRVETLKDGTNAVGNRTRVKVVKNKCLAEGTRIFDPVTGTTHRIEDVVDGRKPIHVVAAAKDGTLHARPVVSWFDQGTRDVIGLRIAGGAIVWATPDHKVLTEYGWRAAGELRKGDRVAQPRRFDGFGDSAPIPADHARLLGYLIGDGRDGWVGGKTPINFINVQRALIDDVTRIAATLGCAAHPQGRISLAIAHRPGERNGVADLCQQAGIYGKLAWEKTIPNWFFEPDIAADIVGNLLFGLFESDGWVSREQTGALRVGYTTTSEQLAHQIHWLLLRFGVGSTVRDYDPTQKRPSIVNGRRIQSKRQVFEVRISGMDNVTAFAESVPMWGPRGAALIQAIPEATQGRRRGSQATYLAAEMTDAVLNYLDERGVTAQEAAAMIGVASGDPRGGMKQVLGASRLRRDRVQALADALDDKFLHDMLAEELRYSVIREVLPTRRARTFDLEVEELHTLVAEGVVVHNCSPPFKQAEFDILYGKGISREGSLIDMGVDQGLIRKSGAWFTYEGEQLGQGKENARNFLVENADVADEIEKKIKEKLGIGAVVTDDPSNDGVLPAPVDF

[3] = biological target: T3, RNA-binding protein pos-1 (Caenorhabditis elegans, UniProt G5EF15); assay: inhibitors of POS-1/mex-3 RNA binding, dose response, biochemical, fluorescence polarization (AID 1964);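 further: purified POS-1 fused to maltose binding protein made in E. coli; potency of compounds blocking POS-1 binding to fluorescent RNA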
T3 sequence (G5EF15 whole entry): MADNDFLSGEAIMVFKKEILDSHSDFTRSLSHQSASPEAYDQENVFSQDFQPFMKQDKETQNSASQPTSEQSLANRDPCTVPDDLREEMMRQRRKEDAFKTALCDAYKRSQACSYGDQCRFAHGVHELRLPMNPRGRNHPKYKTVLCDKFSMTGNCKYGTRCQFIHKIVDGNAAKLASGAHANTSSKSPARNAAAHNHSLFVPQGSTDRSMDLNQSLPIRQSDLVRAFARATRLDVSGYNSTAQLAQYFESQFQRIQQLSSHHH

[4] = biological target: T4, Zinc finger protein mex-5 (Caenorhabditis elegans, UniProt Q9XUB2); assay: MEX-5/TCR-2 RNA interaction inhibitors, dose response, biochemical, C. elegans, fluorescence polarization (AID 1960)
T4 sequence (Q9XUB2 whole entry): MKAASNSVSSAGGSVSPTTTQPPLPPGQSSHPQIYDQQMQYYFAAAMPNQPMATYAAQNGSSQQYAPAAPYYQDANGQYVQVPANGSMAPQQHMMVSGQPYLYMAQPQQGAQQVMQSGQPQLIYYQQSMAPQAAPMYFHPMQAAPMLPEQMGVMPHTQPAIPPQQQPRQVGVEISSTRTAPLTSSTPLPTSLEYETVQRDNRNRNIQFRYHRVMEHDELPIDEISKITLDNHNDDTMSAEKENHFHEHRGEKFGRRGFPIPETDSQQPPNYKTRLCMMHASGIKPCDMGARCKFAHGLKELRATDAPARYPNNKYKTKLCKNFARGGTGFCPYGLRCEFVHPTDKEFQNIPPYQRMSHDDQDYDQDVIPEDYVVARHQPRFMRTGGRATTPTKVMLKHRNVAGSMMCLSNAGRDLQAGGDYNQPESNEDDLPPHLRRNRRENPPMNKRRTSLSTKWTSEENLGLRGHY

[5] = tested on: H4; assay: Luminescence Cell-Based Dose Response HTS to Identify Activators of 5'UTR Stem-Loop Driven Prion Protein mRNA Translation in H4 Neuroglioblastoma Cells. [Related pubchem assays: 1829 (Project Summary), 1814 (Primary HTS)]; format: functional; details: Homo sapiens
[6] = biological target: T5, Cytochrome P450 1A2 (Homo sapiens, UniProt P05177);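 further: PubChem cytochrome P450 panel assay, CYP1A2 panel member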
T5 sequence (P05177 whole entry): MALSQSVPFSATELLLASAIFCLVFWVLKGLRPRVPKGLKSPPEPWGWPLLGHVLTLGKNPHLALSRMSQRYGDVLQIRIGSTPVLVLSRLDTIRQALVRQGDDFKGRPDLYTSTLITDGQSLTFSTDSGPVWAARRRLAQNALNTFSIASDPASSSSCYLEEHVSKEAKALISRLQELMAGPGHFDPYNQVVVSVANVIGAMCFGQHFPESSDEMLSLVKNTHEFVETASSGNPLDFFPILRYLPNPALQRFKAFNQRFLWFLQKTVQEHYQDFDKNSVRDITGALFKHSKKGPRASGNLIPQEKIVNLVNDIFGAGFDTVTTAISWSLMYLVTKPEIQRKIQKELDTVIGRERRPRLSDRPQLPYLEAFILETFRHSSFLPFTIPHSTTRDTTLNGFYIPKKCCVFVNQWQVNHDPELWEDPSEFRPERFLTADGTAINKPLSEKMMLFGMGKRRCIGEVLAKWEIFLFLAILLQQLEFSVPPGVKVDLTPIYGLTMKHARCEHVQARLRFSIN

[7] = biological target: Cytochrome P450 2C9 (Homo sapiens, UniProt P11712)
Sequence of Cytochrome P450 2C9 (P11712 whole entry): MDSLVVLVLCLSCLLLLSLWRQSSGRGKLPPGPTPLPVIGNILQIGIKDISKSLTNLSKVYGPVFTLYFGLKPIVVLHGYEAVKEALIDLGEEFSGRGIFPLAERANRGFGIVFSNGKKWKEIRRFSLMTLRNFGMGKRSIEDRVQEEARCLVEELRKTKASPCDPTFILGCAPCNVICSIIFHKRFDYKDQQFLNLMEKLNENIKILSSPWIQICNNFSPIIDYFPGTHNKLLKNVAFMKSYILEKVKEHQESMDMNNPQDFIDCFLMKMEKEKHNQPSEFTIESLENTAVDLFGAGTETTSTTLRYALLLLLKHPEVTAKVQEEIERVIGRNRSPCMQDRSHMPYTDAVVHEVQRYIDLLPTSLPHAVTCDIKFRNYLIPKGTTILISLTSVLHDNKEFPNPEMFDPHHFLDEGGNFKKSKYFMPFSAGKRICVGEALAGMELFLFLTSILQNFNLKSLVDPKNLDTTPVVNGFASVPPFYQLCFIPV

[8] = Luminescence Cell-Based Dose Retest to Confirm Inhibitors of Cancer Stem Cells. [Related pubchem assays (depositor defined):AID2717, AID2721]; format: functional; details: Homo sapiens
[9] = biological target: Cytochrome P450 2D6 (Homo sapiens, UniProt P10635);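 further: CYP2D6 member of a cytochrome P450 panel assay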
Sequence of Cytochrome P450 2D6 (P10635 whole entry): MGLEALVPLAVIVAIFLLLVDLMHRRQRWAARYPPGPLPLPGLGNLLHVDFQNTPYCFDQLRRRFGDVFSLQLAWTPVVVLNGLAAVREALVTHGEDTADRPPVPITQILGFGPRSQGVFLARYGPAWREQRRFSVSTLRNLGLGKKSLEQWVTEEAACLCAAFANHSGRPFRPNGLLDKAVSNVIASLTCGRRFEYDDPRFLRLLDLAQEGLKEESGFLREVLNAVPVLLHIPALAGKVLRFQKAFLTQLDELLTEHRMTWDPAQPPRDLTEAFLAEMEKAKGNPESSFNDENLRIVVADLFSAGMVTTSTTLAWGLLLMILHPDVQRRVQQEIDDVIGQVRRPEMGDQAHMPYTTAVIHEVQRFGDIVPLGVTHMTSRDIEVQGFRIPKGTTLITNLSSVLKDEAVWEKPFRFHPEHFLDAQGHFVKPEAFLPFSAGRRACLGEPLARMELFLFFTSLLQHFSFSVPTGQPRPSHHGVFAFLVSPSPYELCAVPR

[10] = biological target: Cytochrome P450 3A4 (Homo sapiens, UniProt P08684);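 further: CYP3A4 tested as one member of a cytochrome P450 panel screen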
Sequence of Cytochrome P450 3A4 (P08684 whole entry): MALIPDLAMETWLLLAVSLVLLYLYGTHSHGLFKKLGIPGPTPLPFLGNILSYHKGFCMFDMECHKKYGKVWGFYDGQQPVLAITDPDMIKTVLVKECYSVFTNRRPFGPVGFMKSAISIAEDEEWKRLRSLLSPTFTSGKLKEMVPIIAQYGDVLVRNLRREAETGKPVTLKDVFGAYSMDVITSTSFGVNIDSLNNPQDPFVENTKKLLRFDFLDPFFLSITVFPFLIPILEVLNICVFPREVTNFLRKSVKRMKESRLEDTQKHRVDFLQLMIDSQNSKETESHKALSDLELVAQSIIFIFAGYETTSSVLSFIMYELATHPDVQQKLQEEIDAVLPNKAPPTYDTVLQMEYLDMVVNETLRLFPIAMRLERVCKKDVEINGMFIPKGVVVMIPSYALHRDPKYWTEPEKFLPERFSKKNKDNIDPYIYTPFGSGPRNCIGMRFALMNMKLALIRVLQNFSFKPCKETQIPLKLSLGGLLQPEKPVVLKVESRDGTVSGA

[11] = biological target: T6, Rac GTPase-activating protein 1 (Homo sapiens, UniProt Q9H0H5); assay: MgcRacGAP GTPase-activating activity inhibitors, confirmation, biochemical, ADP Hunter fluorescence, primary and confirmatory (AID 624330); format: functional
T6 sequence (Q9H0H5 whole entry): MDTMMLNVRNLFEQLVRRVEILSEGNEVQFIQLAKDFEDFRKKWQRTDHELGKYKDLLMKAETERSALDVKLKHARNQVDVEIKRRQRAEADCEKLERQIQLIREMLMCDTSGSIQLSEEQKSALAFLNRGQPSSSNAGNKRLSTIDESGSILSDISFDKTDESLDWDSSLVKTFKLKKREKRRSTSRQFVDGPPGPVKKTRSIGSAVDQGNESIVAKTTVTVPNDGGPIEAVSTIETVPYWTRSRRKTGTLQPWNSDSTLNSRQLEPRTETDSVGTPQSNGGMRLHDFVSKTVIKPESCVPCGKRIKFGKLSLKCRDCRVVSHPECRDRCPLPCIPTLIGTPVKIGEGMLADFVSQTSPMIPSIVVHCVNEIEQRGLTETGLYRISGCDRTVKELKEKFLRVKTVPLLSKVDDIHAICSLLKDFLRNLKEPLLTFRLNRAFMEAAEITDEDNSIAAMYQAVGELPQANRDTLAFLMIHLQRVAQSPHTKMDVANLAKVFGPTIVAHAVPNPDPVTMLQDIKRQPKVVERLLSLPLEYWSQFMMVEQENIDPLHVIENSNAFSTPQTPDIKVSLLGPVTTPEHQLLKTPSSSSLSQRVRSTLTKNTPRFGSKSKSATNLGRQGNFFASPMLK

CCCc1n[nH]c2c1C(c1ccc(OC)c(Cn3nnc4ccccc43)c1)C(C#N)=C(N)O2 (stereo not given)
AC50 [1]: 19.7 µM (active)
EC50 [2]: 0.283 µM (active)

Cc1cccc(NC(=O)/C(C#N)=C\c2cc(C)n(-c3ccc(C(=O)O)cc3)c2C)c1
EC50 [3]: 84 µM (active)
EC50 [4]: > 300 µM (not active)

Cc1ccc(C(=O)Nc2nc3ccccc3n2CCN2CCCC2)cc1
EC50 [5]: 10.9 µM (active)

CC(C)(C)N=C(S)NCCc1ccccc1
EC50 [3]: > 300 µM (inconclusive)
EC50 [4]: > 300 µM (not active)

O=C(O)c1cccc(SSc2cccc(C(=O)O)c2)c1
AC50 [6]: 5.01 µM (inconclusive)
AC50 [7]: 2 µM (inconclusive)

CCCCCc1cc(=O)oc2c(C(CCN3CCCC(C)C3)c3ccc4c(c3)OCO4)c(OC)cc(OC)c12 (stereo not given)
AC50 [8]: 6.14 µM (active)
AC50 [1]: 5.31 µM (active)
EC50 [2]: 11.6 µM (active)

COc1cc(NC(=O)c2cc(Cl)ccc2Cl)ccc1-c1cc2ccccc2oc1=O
AC50 [9]: 25.1 µM (inconclusive)
AC50 [6]: 12.6 µM (inconclusive)
AC50 [10]: 1 µM (inconclusive)

Cc1sc2nc(SCc3nc(-c4cccs4)no3)n(-c3ccccc3)c(=O)c2c1C
AC50 [6]: 14.1 µM (inconclusive)
AC50 [7]: 0.501 µM (inconclusive)

CS(=O)(=O)c1ccc(C(=O)OCc2nnc(-c3ccc(Cl)cc3)o2)cc1[N+](=O)[O-]
AC50 [1]: 2.2 µM (active)
EC50 [2]: 1.42 µM (active)

N#C/C(=C/c1ccc2c(c1)OCO2)C(=O)Nc1ccc(O)cc1
AC50 [1]: 19 µM (active)
EC50 [2]: 3.64 µM (active)
IC50 [11]: 55.4 µM (active)

CC1(C)CC(=O)C2=C(C1)OC(N)=C(C#N)[C@@]21C(=O)N(CC(N)=O)c2ccccc21
EC50 [3]: > 300 µM (not active)
EC50 [4]: > 300 µM (not active)

Cc1ccc(-c2ccc(CCC(=O)O)n2-c2cccc(C(=O)O)c2)cc1
EC50 [3]: > 300 µM (not active)
EC50 [4]: > 300 µM (not active)

Cc1ccc(Nc2cc(C)nc3c(C)ccc([N+](=O)[O-])c23)cc1
AC50 [1]: > 120 µM (inactive)
EC50 [2]: 2.34 µM (active)

CC1=NN(Cc2ccccc2)C(=O)C1
AC50 [1]: 5.61 µM (active)
EC50 [2]: 1.88 µM (active)

CC1(OC(=O)C2CCCC2)C(=O)C=C2C=C(c3ccsc3)OC=C2C1=O (stereo not given)
EC50 [3]: 47.8 µM (active)
EC50 [4]: 37.1 µM (active)

CCOC(=O)C1Nc2ccc(OC(F)(F)F)cc2C2C=CCC12 (stereo not given)
EC50 [3]: > 300 µM (not active)
EC50 [4]: > 300 µM (not active)

O=C(C1CCN(S(=O)(=O)c2cccc3nsnc23)CC1)N1CCn2c1nc1ccccc12
AC50 [9]: 17.8 µM (inconclusive)
AC50 [6]: 20 µM (inconclusive)
AC50 [7]: 25.1 µM (inconclusive)

Cc1cc(C)cc(N2C(=O)/C(=C/Nc3ccc(N4CCOCC4)cc3)C(=O)NC2=S)c1
EC50 [3]: 7.92 µM (active)
EC50 [4]: 5.42 µM (inconclusive)

N#CC(C#N)=Cc1ccc(NC(=O)c2ccc(Br)cc2)cc1
EC50 [3]: > 300 µM (not active)
EC50 [4]: > 300 µM (not active)

COc1ccc(C(=O)/C=C/c2ccc(N3CCCCC3)c([N+](=O)[O-])c2)c(OC)c1
EC50 [3]: > 300 µM (not active)
EC50 [4]: > 300 µM (not active)
AC50 [8]: 4.31 µM (active)

N#Cc1cccc(NC(=O)N2CCCC3(CCN(C(=O)c4cnccn4)CC3)C2)c1
AC50 [6]: 20 µM (inconclusive)
AC50 [10]: 15.8 µM (inconclusive)

O=C1OCc2cc(-n3cccc3)ccc21
EC50 [3]: > 300 µM (not active)
EC50 [4]: > 300 µM (not active)

CCc1n[nH]c2c1C(c1cccnc1)C(C#N)=C(N)O2 (stereo not given)
AC50 [1]: 24.4 µM (inconclusive)
EC50 [2]: 11.5 µM (active)

— ChEMBL document CHEMBL1201862, “PubChem BioAssay data set” (2004)
